# Target: VMAT2 (Mus musculus, UniProt Q8BRU6)
# Assay: Blocking study in normal mice, co-injection of DTBZ or raclopride
# Format: in vivo
# Set-up: from tissue; host or cells: living ICR mice and lesioned mice; brain regions dissected after iv injection
# Conditions: 30 min after iv
# Procedure: While under isoflurane anesthesia, 0.15 mL of a 0.1% bovine serum albumin solution containing [^18F]tracers (10-20 μCi) were injected directly into the tail vein of ICR mice (22-25 g, male) The mice (n=3 for each time point) were sacrificed by cervical dislocation at indicated time points post injection. The organs of interest were removed and weighed, and the radioactivity was counted with an automatic gamma counter. The percentage dose per organ was calculated by a comparison of the tissue counts to suitably diluted aliquots of the injected material. Total activities of blood were calculated under the assumption that they were 7% of the total body weight. The % dose/g of samples was calculated by comparing the sample counts with the count of the diluted initial dose. Different regions corresponding to striatum (ST), hippocampus (HP), cerebellum (CB), and cortex (CX) were dissected out from the brain.
# Blocking studies were carried out by co-injection (iv) of the ^18F tracer with (±)DTBZ (3 mg/kg) or raclopride (1.2 mg/kg) into the animals. Thirty minutes after the injection, the animals were sacrificed and the brain regions including ST, HP, CB and CX were dissected out and the % dose/g were calculated. The ratios of target (ST) vs nontarget (CB) were compared between control and blocked groups.
# Chain of VMAT2 (Q8BRU6 whole entry): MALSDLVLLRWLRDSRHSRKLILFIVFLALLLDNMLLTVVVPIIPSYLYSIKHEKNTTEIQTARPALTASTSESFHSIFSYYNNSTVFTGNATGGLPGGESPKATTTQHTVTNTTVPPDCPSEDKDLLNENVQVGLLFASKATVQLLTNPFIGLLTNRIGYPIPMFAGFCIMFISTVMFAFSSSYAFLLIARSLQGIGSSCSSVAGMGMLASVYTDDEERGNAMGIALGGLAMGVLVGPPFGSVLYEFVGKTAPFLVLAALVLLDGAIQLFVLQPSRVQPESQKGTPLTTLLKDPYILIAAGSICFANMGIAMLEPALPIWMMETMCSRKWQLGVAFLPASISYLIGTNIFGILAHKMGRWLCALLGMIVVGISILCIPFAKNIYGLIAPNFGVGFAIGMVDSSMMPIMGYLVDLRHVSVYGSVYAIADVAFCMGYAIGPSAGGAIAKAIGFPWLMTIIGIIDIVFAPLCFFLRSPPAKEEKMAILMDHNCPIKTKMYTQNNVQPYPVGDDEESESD
structure (smiles),measurement,setting,value
COc1cc2c(cc1OCCC[18F])CCN1CC(CC(C)C)C(O)CC21 (racemic) [[^18F]6b],Organ distribution Blood,Control,1.41 ± 0.20 % dose/g
same,Organ distribution Bone,Control,6.06 ± 1.11 % dose/g
same,Organ distribution Brain,Control,1.40 ± 0.12 % dose/g
same,Organ distribution Heart,Control,2.05 ± 0.13 % dose/g
same,Organ distribution Kidney,Control,5.90 ± 0.42 % dose/g
same,Organ distribution Liver,Control,13.9 ± 1.15 % dose/g
same,Organ distribution Lung,Control,2.78 ± 0.20 % dose/g
same,Organ distribution Muscle,Control,1.06 ± 0.06 % dose/g
same,Organ distribution Skin,Control,1.48 ± 0.09 % dose/g
same,Organ distribution Spleen,Control,2.90 ± 0.14 % dose/g
same,Ratio (vs CB) Cortex,Control,1.15
same,Ratio (vs CB) Hippocampus,Control,1.36
same,Ratio (vs CB) Hypothalamus,Control,2.54
same,Ratio (vs CB) Striatum,Control,3.40
same,Regional brain distribution Cerebellum (CB),Control,1.05 ± 0.09 % dose/g
same,Regional brain distribution Cortex,Control,1.21 ± 0.15 % dose/g
same,Regional brain distribution Hippocampus,Control,1.43 ± 0.12 % dose/g
same,Regional brain distribution Hypothalamus,Control,2.67 ± 0.30 % dose/g
same,Regional brain distribution Striatum,Control,3.57 ± 0.30 % dose/g
same,Organ distribution Blood,with 1.2 mg/kg raclopride,1.60 ± 0.08 % dose/g
same,Organ distribution Bone,with 1.2 mg/kg raclopride,6.03 ± 1.07 % dose/g
same,Organ distribution Brain,with 1.2 mg/kg raclopride,1.64 ± 0.16 % dose/g
same,Organ distribution Heart,with 1.2 mg/kg raclopride,2.29 ± 0.06 % dose/g
same,Organ distribution Kidney,with 1.2 mg/kg raclopride,6.01 ± 0.50 % dose/g
same,Organ distribution Liver,with 1.2 mg/kg raclopride,14.6 ± 0.44 % dose/g
same,Organ distribution Lung,with 1.2 mg/kg raclopride,3.34 ± 0.24 % dose/g
same,Organ distribution Muscle,with 1.2 mg/kg raclopride,1.15 ± 0.03 % dose/g
same,Organ distribution Skin,with 1.2 mg/kg raclopride,1.58 ± 0.09 % dose/g
same,Organ distribution Spleen,with 1.2 mg/kg raclopride,3.25 ± 0.20 % dose/g
same,Ratio (vs CB) Cortex,with 1.2 mg/kg raclopride,1.18
same,Ratio (vs CB) Hippocampus,with 1.2 mg/kg raclopride,1.59
same,Ratio (vs CB) Hypothalamus,with 1.2 mg/kg raclopride,2.12
same,Ratio (vs CB) Striatum,with 1.2 mg/kg raclopride,3.93
same,Regional brain distribution Cerebellum (CB),with 1.2 mg/kg raclopride,1.19 ± 0.11 % dose/g
same,Regional brain distribution Cortex,with 1.2 mg/kg raclopride,1.41 ± 0.15 % dose/g
same,Regional brain distribution Hippocampus,with 1.2 mg/kg raclopride,1.89 ± 0.85 % dose/g
same,Regional brain distribution Hypothalamus,with 1.2 mg/kg raclopride,2.52 ± 0.77 % dose/g
same,Regional brain distribution Striatum,with 1.2 mg/kg raclopride,4.67 ± 1.29 % dose/g
same,Organ distribution Blood,with 3 mg/kg (+)DTBZ,1.67 ± 0.04 % dose/g
same,Organ distribution Bone,with 3 mg/kg (+)DTBZ,6.54 ± 0.84 % dose/g
same,Organ distribution Brain,with 3 mg/kg (+)DTBZ,0.86 ± 0.04 % dose/g
same,Organ distribution Heart,with 3 mg/kg (+)DTBZ,2.36 ± 0.07 % dose/g
same,Organ distribution Kidney,with 3 mg/kg (+)DTBZ,4.94 ± 3.38 % dose/g
same,Organ distribution Liver,with 3 mg/kg (+)DTBZ,14.0 ± 0.56 % dose/g
same,Organ distribution Lung,with 3 mg/kg (+)DTBZ,3.27 ± 0.17 % dose/g
same,Organ distribution Muscle,with 3 mg/kg (+)DTBZ,1.28 ± 0.07 % dose/g
same,Organ distribution Skin,with 3 mg/kg (+)DTBZ,1.67 ± 0.02 % dose/g
same,Organ distribution Spleen,with 3 mg/kg (+)DTBZ,2.67 ± 0.17 % dose/g
same,Ratio (vs CB) Cortex,with 3 mg/kg (+)DTBZ,1.03
same,Ratio (vs CB) Hippocampus,with 3 mg/kg (+)DTBZ,0.94
same,Ratio (vs CB) Hypothalamus,with 3 mg/kg (+)DTBZ,1.04
same,Ratio (vs CB) Striatum,with 3 mg/kg (+)DTBZ,0.98
same,Regional brain distribution Cerebellum (CB),with 3 mg/kg (+)DTBZ,0.89 ± 0.16 % dose/g
same,Regional brain distribution Cortex,with 3 mg/kg (+)DTBZ,0.91 ± 0.13 % dose/g
same,Regional brain distribution Hippocampus,with 3 mg/kg (+)DTBZ,0.83 ± 0.27 % dose/g
same,Regional brain distribution Hypothalamus,with 3 mg/kg (+)DTBZ,0.92 ± 0.23 % dose/g
same,Regional brain distribution Striatum,with 3 mg/kg (+)DTBZ,0.87 ± 0.18 % dose/g

# — US8562949B2, “Radiolabeled dihydrotetrabenazine derivatives and their use as imaging agents” (The Trustees of the University of Pennsylvania, priority 2006, dated 2013)
